18 molecules from patent publication US10793568B2, “Hormone receptor modulators for treating metabolic conditions and disorders” (ARDELYX, INC., priority 2016, dated 2020) can be followed below.

Test [1] deals with ligand binding domain of human FXR (Homo sapiens (Human), UniProt Q96RI1). Put plainly: FXR ligand binding assay (LanthaScreen TR-FRET, SRC2-2 peptide recruitment). To be noted: for Emax: read-out: % Efficacy. Background: In TR-FRET formats the signal depends on donor and acceptor labels being close together.
Test [2] addresses human Farnesoid X receptor ligand-binding domain/Gal4 DNA binding domain chimera (Homo sapiens (Human), UniProt Q96RI1). Put plainly: Cell-based assay of FXR activation (FXR-UAS-bla HEK 293T beta-lactamase reporter). To be noted: cellular FXR beta-lactamase reporter assay; for Emax: HEK-293T, read-out: % Efficacy. In outline:
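HEK 293T cells stably expressing a Gal4-fused human FXR LBD and a UAS-driven beta-lactamase reporter were incubated with serially diluted compounds for 16 h at 37 °C in phenol red-free DMEM with 2% charcoal-stripped FBS. CCF4 FRET read-out: excitation 409 nm, emission 447 nm. pEC50 comes from a 3-parameter logistic fit, and efficacy is given as % of GW4064.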
For orientation: A reporter such as luciferase makes a cellular process visible.

The mark [3] stands for this setting: -log EC50, concentration required to produce 50% activation.
Where [4] appears, read: extent of activation relative to GW4064.
[5] abbreviates: FXR-UAS-bla HEK 293T cells, 16 h, pEC50 = -log EC50.

Chain of human Farnesoid X receptor ligand-binding domain/Gal4 DNA binding domain chimera (Q96RI1 262-486, change not shown): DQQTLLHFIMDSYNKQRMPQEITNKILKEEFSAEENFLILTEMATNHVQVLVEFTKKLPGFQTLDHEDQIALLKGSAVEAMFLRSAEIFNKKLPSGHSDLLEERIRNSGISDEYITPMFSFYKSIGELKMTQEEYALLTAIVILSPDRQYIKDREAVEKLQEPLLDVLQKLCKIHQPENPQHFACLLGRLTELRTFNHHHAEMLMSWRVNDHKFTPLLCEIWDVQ
Chain of human Farnesoid X receptor ligand-binding domain/Gal4 DNA binding domain chimera (P04386 1-147 partner): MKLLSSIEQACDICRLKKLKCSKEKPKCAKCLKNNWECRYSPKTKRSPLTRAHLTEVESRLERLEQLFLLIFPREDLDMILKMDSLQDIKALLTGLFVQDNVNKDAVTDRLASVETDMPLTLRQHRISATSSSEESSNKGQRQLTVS
Chain of ligand binding domain of human FXR (Q96RI1 262-486): as the sequence (Q96RI1 262-486, change not shown) above

For the molecule `O=C(NS(=O)(=O)C1CC1)c1ccc(N2C[C@@H]3C[C@H]2C[C@H]3OCc2c(C3CCC4(CC3)CC4)noc2C2CC2)cc1` [Compound I-228, 4-((1S,4S,5R)-5-((5-cyclopropyl-3-(spiro[2.5]octan-6-yl)isoxazol-4-yl)methoxy)-2-azabicyclo[2.2.1]heptan-2-yl)-N-(cyclopropylsulfonyl)benzamide], the pEC50 (as a rule, −log10 of the EC50, conventionally taken in molar units) in test [1] (setting [3]) was found to be 7. For the same molecule, the figures for the Emax in test [1] (setting [4]) and in test [2] (setting [4]) were 134% and 105%, respectively. This molecule had an EC50 in test [2] (setting [5]) of 20 nM.
Taken in the same sequence, the figures for `O=C(O)c1cc(OC2CC2)c2nc(N3C[C@@H]4C[C@H]3C[C@H]4OCc3c(-c4c(F)cccc4Cl)noc3C3CC3)sc2c1` [Compound I-263, 2-((1S,4S,5R)-5-((3-(2-chloro-6-fluorophenyl)-5-cyclopropylisoxazol-4-yl)methoxy)-2-azabicyclo[2.2.1]heptan-2-yl)-4-cyclopropoxybenzo[d]thiazole-6-carboxylic acid] were 8.6, 150%, 109% and 0.1 nM.
For the molecule `O=C(O)c1ccc(N2C[C@H]3C[C@@H]2C[C@@H]3OCc2c(-c3c(Cl)cccc3Cl)noc2C2CC2)cc1` [Compound I-132], the Emax in test [1] (setting [4]) was 98%. In addition, the EC50 in test [2] (setting [5]) is less than 316 nM.
As to `Fc1cc(CCc2nn[nH]n2)ccc1N1C[C@@H]2C[C@H]1C[C@H]2OCc1c(-c2c(Cl)cccc2Cl)noc1C1CC1` [Compound I-162, (1S,4S,5R)-5-{[5-cyclopropyl-3-(2,6-dichlorophenyl)-1,2-oxazol-4-yl]methoxy}-2-{2-fluoro-4-[2-(2H-1,2,3,4-tetrazol-5-yl)ethyl]phenyl}-2-azabicyclo[2.2.1]heptane], the pEC50 in test [1] (setting [3]) was 8.1. The Emax amounted to 140% in test [1] (setting [4]) and 105% in test [2] (setting [4]). The same molecule had an EC50 in test [2] (setting [5]) of 6.31 nM.
In test [1] (setting [3]), `O=C(O)CCc1ccc(N2C(=O)[C@@H]3C[C@H]2C[C@H]3OCc2c(-c3c(Cl)cccc3Cl)noc2C2CC2)cc1F` [Compound I-305, 3-{4-[(1S,4R,5R)-5-{[5-cyclopropyl-3-(2,6-dichlorophenyl)-1,2-oxazol-4-yl]methoxy}-3-oxo-2-azabicyclo[2.2.1]heptan-2-yl]-2-fluorophenyl}propanoic Acid] showed a pEC50 of 7.5. In addition, the Emax in test [1] (setting [4]) was 121%; in test [2] (setting [4]), 98%. In test [2] (setting [5]), this molecule showed an EC50 of 3.16 nM.
Consider `O=C(O)c1cc(OC(F)(F)F)c2nc(N3C[C@@H]4C[C@H]3C[C@H]4OCc3c(C4CCCCC4)noc3C3CC3)sc2c1` [Compound I-22, 2-[(1S,4S,5R)-5-[(3-cyclohexyl-5-cyclopropyl-1,2-oxazol-4-yl)methoxy]-2-azabicyclo[2.2.1]heptan-2-yl]-4-(trifluoromethoxy)-1,3-benzothiazole-6-carboxylic Acid], for which the EC50 in test [1] (setting [3]) was 316 nM; in test [2] (setting [5]), 126 nM. Besides, the Emax in test [1] (setting [4]) came out at 85%; in test [2] (setting [4]), 113%.
In test [1] (setting [3]), `COc1ccc(-c2noc(C3CC3)c2CO[C@@H]2C[C@@H]3C[C@H]2CN3c2nc3c(F)cc(C(=O)O)cc3s2)cc1` [Compound I-290, 2-((1S,4S,5R)-5-((5-cyclopropyl-3-(4-methoxyphenyl)isoxazol-4-yl)methoxy)-2-azabicyclo[2.2.1]heptan-2-yl)-4-fluorobenzo[d]thiazole-6-carboxylic acid] had a pEC50 of more than 4.5. In test [2] (setting [5]), the EC50 is less than 31.6 nM.
In test [1] (setting [3]), `O=C(O)Cc1ccc(N2C[C@@H]3C[C@H]2C[C@H]3OCc2c(-c3c(Cl)cccc3Cl)noc2C2CC2)cc1` [Compound I-146, 2-{4-[(1S,4S,5R)-5-{[5-cyclopropyl-3-(2,6-dichlorophenyl)-1,2-oxazol-4-yl]methoxy}-2-azabicyclo[2.2.1]heptan-2-yl]phenyl}acetic Acid] had a pEC50 of 7.9. Also, the Emax in test [1] (setting [4]) was found to be 134%; in test [2] (setting [4]) it was 101%. For the same molecule, the EC50 in test [2] (setting [5]) is 7.94 nM.
Consider `CC(=O)OCCS(=O)(=O)NC(=O)c1ccc(N2C[C@@H]3C[C@H]2C[C@H]3OCc2c(-c3c(Cl)cccc3Cl)noc2C2CC2)cc1` [Compound I-211, 2-[({4-[(1S,4S,5R)-5-{[5-cyclopropyl-3-(2,6-dichlorophenyl)-1,2-oxazol-4-yl]methoxy}-2-azabicyclo[2.2.1]heptan-2-yl]phenyl}formamido)sulfonyl]ethyl Acetate], for which, in test [1] (setting [3]), the pEC50 came out at 8.4. Also, the Emax in test [1] (setting [4]) was 152%; in test [2] (setting [4]), 105%. Further, in test [2] (setting [5]), the EC50 was 1 nM.
Taken in the same sequence, the figures for `CS(=O)(=O)NC(=O)c1ccc(N2C[C@@H]3C[C@H]2C[C@H]3OC(=O)c2c(-c3c(Cl)cccc3Cl)noc2C2CC2)c(F)c1` [Compound I-48, (1S,4S,5R)-2-[2-fluoro-4-(methanesulfonylcarbamoyl)phenyl]-2-azabicyclo[2.2.1]heptan-5-yl 5-cyclopropyl-3-(2,6-dichlorophenyl)-1,2-oxazole-4-carboxylate] were 7.6, 199%, 119% and 6.31 nM.
In test [1] (setting [3]), `O=C(O)c1cc(C2CCC2)c2nc(N3C(=O)[C@@H]4C[C@H]3C[C@H]4OCc3c(-c4c(Cl)cccc4Cl)noc3C3CC3)sc2c1` [Compound I-296, 4-cyclobutyl-2-((1S,4R,5R)-5-((5-cyclopropyl-3-(2,6-dichlorophenyl)isoxazol-4-yl)methoxy)-3-oxo-2-azabicyclo[2.2.1]heptan-2-yl)benzo[d]thiazole-6-carboxylic acid] yielded a pEC50 of 7.6. Further, the results for the Emax in test [1] (setting [4]) and in test [2] (setting [4]) were 90% and 109%, respectively. This molecule showed an EC50 in test [2] (setting [5]) of 10 nM.
In test [1] (setting [3]), `O=C(c1ccc(N2C[C@@H]3C[C@H]2C[C@H]3OCc2c(-c3c(Cl)cccc3Cl)noc2C2CC2)cc1)C(F)(F)F` [Compound I-142, 1-{4-[(1S,4S,5R)-5-{[5-cyclopropyl-3-(2,6-dichlorophenyl)-1,2-oxazol-4-yl]methoxy}-2-azabicyclo[2.2.1]heptan-2-yl]phenyl}-2,2,2-trifluoroethan-1-one] yielded a pEC50 of 7.8. Further, the Emax in test [1] (setting [4]) is 78%; in test [2] (setting [4]) it was 104%. Further, in test [2] (setting [5]), the EC50 was 20 nM.
In the same order, the values of `O=C(NS(=O)(=O)C1COC1)c1ccc(N2C[C@@H]3C[C@H]2C[C@H]3OCc2c(-c3c(Cl)cccc3Cl)noc2C2CC2)cc1` [Compound I-184, 4-((1S,4S,5R)-5-((5-cyclopropyl-3-(2,6-dichlorophenyl)isoxazol-4-yl)methoxy)-2-azabicyclo[2.2.1]heptan-2-yl)-N-(oxetan-3-ylsulfonyl)benzamide] are 7.7, 161%, 108% and 3.16 nM.
In the same order, the values of `CCCS(=O)(=O)NC(=O)c1ccc(N2C[C@@H]3C[C@H]2C[C@H]3OCc2c(-c3c(Cl)cccc3Cl)noc2C2(F)CC2)c(F)c1` [Compound I-198, 4-((1S,4S,5R)-5-((3-(2,6-dichlorophenyl)-5-(1-fluorocyclopropyl)isoxazol-4-yl)methoxy)-2-azabicyclo[2.2.1]heptan-2-yl)-3-fluoro-N-(propylsulfonyl)benzamide] are 8.5, 178%, 112% and 0.501 nM.
Taken in the same sequence, the figures for `O=C(O[C@@H]1C[C@@H]2C[C@H]1CN2c1ccc(-c2nn[nH]n2)cc1)c1c(-c2c(Cl)cccc2Cl)noc1C1CC1` [Compound I-50, (1S,4S,5R)-2-[4-(2H-1,2,3,4-tetrazol-5-yl)phenyl]-2-azabicyclo[2.2.1]heptan-5-yl 5-cyclopropyl-3-(2,6-dichlorophenyl)-1,2-oxazole-4-carboxylate] were 6.8, 184%, 109% and 15.8 nM.
`CCOCCOCCS(=O)(=O)NC(=O)c1ccc(N2C[C@@H]3C[C@H]2C[C@H]3OCc2c(-c3c(Cl)cccc3Cl)noc2C2CC2)c(F)c1` [Compound I-193, 4-((1S,4S,5R)-5-((5-cyclopropyl-3-(2,6-dichlorophenyl)isoxazol-4-yl)methoxy)-2-azabicyclo[2.2.1]heptan-2-yl)-N-((2-(2-ethoxyethoxy)ethyl)sulfonyl)-3-fluorobenzamide]: the negative-log EC50 (pEC50) in test [1] (setting [3]) was found to be 8.2. Further, the Emax was 138% in test [1] (setting [4]) and 114% in test [2] (setting [4]). This molecule also showed an EC50 in test [2] (setting [5]) of 1.58 nM.
Taken in the same sequence, the figures for `O=C(CCc1ccc(N2C[C@@H]3C[C@H]2C[C@H]3OCc2c(-c3c(Cl)cccc3Cl)noc2C2CC2)c(F)c1)OCCN(CCO)CCO` [Compound I-163, 2-[bis(2-hydroxyethyl)amino]ethyl 3-{4-[(1S,4S,5R)-5-{[5-cyclopropyl-3-(2,6-dichlorophenyl)-1,2-oxazol-4-yl]methoxy}-2-azabicyclo[2.2.1]heptan-2-yl]-3-fluorophenyl}propanoate] were 7.5, 154%, 99% and 1.26 nM.
Turning to `O=C(O)c1cc([C@@H]2C[C@H]3CC[C@@H](C2)O3)c2nc(N3C[C@@H]4C[C@H]3C[C@H]4OCc3c(-c4c(Cl)cccc4Cl)noc3C3CC3)sc2c1` [Compound I-256, 2-[(1S,4S,5R)-5-{[5-cyclopropyl-3-(2,6-dichlorophenyl)-1,2-oxazol-4-yl]methoxy}-2-azabicyclo[2.2.1]heptan-2-yl]-4-[(1R,3S,5S)-8-oxabicyclo[3.2.1]octan-3-yl]-1,3-benzothiazole-6-carboxylic Acid], the pEC50 was 8.4 in test [1] (setting [3]) and 9.7 in test [2] (setting [5]). For the same molecule, the “% Efficacy” value in test [1] (setting [4]) came to 157%; in test [2] (setting [4]) it was 107%.
